Legend:
Ishikawa cells = test: Induction of AlkP expression in Ishikawa cells; type: cell-based, human; details: for EC (25% of 0.1 nM E2 effect) / activation at 1 µM: 72 h; for EC (25% of 0.1 nM E2 effect): concentration required to achieve 25% of the effect of 0.1 nM E2, read-out: Induction of Alkaline Phosphatase Expression (Ishikawa cells) EC25E2; for activation at 1 µM: read-out: Induction of AlkP expression (Ishikawa cells) Agonism at 1μΜ (% of 0.1nM E2)
Protocol: Induction of AlkP expression of Ishikawa cells is considered as a reliable in vitro measure of estrogenic activity. Assessment of AlkP expression in Ishikawa cells was carried as already described. Briefly, the cells were plated in 96-well plates at a density of 12,000 cells per well in phenol-red-free MEM supplemented with 1 μg/mL insulin and 5% DCC-FBS. […] Data on the dependence of AlkP activity on isoflavonoid concentration were curve fitted using SigmaPlot10 (SPSS Inc) and the numerical data of curve fitting were used to determine AUC as described above, using for the calculation of AUC of a particular AlkP response the very same concentration used for the respective luciferase response. The AUC of AlkP responses of the isoflavonoids of a group were expressed as % of the AUC of the luciferase response of the respective archetypal isoflavone.

MCF-7 cells = test: MCF-7 cell proliferation (MTT); type: cell-based, human; details: for activation at 1 µM: Homo sapiens, MCF7, 72 h, read-out: Induction of cell proliferation (MCF-7 cells) Agonism at 1μΜ (% of 0.1nM E2)
Protocol: Test compound effects on the proliferation of MCF-7 and MDA-MB-231 cells were assessed as previously described.

RAW 264.7 cells [1] = test: Differentiation of RAW 264.7 cells to osteoclasts, TRAP activity; type: cell-based, mouse; details: RANKL 50 ng/ml + E2 1 nM or compound 1 μM; 3 days; DF plus vehicle = 100
Protocol: Clones of RAW 264.7 cells competent to differentiate to multinuclear osteoclasts upon activation with RANKL provide valuable information on the regulation of osteoclast differentiation. Differentiation-competent RAW cells (ATCC TIB-71) were seeded in 96-well plates at a density of 9,600 cells per well. The cells were plated in the presence of test compounds or compound diluent (0.1% DMSO) and, 4 h after plating, were exposed for 3 days to 50 ng/ml RANKL or to plain medium. Osteoclastic differentiation was assessed via induction of Tartrate-Resistant Acid Phosphatase (TRAP) activity. The cells were washed with PBS and incubated with 25μl lysis buffer (0.4 M NaCl, 25 mM Hepes pH 7.7, 1.5 mM MgCl2, 0.2 mM EDTA, 1% NP40) for 5 min on ice.

HT22 cells [2] = test: Glutamate toxicity (oxytosis) of HT22 neuronal cells (MTT); details: for viability of HT22 cells under normal growth conditions compared to vehicle-treated cells: no glutamate
Protocol: Glutamate-challenged HT22 cells suffer oxidative stress-induced cell death (oxytosis) within 24 h due to glutathione depletion and consequent massive accumulation of ROS [42]. The efficacy of test compounds to prevent oxytosis of HT22 cells was assessed as already described. Briefly, HT22 cells were plated in 96-well flat bottom plates at a density of 4,000 cells per well in 100 μl of DMEM (low glucose) containing 2% FBS. 24 h after plating, the cells were treated with test compounds or compound diluent (0.1% DMSO) and then challenged with 5 mM glutamate for 24 h. […] Non-challenged cells served to assess test compound effects on cell viability, whereas challenged cells served to assess the neuroprotective activity of test compounds.

TNFα mRNA [3] = test: LPS-induced TNFα mRNA expression in RAW 264.7 cells (RT-qPCR); type: cell-based, mouse
Protocol: To assess TNFα mRNA expression, RAW 264.7 cells were plated in 6-well plates in alpha-MEM medium supplemented with 10% DCC-FBS, at a density of 300,000 cells per well, maintained in culture for 72 h and then exposed to vehicle (0.3% DMSO) or 3 μΜ test compound for 20 min or 24 h prior to stimulation with 100 ng/ml lipopolysaccharide (Sigma L4391) for 1 h. Extraction of total RNA, reverse transcription (RT) and quantitative PCR (qPCR) analysis of mRNA expression levels were performed as previously described. Relative gene expression levels were calculated by the comparative Ct method using the formula 2^(-ΔCt). Tumor necrosis factor alpha (TNFα) mRNA levels were normalized to the respective levels of […] (GAPDH). Test compound effects on the relative number of viable cells were assessed using crystal violet and a Safire II microplate reader (Tecan) as previously described. […] The following primers were used: […]

RAW 264.7 cells [4] = details: cited from earlier work
HT22 cells [5] = details: cited from earlier work; for prevention of oxytosis of glutamate-challenged HT22 cells: 1 μM estradiol or 2.5 μM genistein
TNFα mRNA [6] = details: cited from earlier work
MDA-MB-231 cells = test: MDA-MB-231 cell proliferation (MTT); type: cell-based; details: 0.1 nM estradiol, 1 μM ICI182,780, isoflavonoids 1 μM
Protocol: Test compound effects on the proliferation of MCF-7 and MDA-MB-231 cells were assessed as previously described. […] Relative numbers of cells exposed to estradiol or to ICI182,780 acted as positive and negative control, respectively.

MC3T3-E1 cells [7] = test: Differentiation of MC3T3-E1 cells to osteoblasts, AlkP activity; type: cell-based, mouse; details: DF + E2 1 nM or compound 1 μM; 6 days; DF plus vehicle = 100
Protocol: (§1) Differentiation of MC3T3-E1 cells was carried out in 96-well plates using 3,300 cells per well and was assessed via induction of, i) Alkaline Phosphatase (AlkP) activity after 6 days of treatment and, ii) mineralization of extracellular matrix after 21 days of treatment. Briefly, 24 h after plating, the cells were incubated with test compounds or vehicle i.e. the compound diluent (0.1% DMSO) and then exposed for 6 days to differentiation medium in presence or absence of differentiation factors (cf. Cell culture) with a change to fresh compounds and medium in 3 days. AlkP activity was assessed at 405 nm in a Safire II microplate reader using as substrate p-nitrophenyl-phosphate (pNPP, Sigma-Aldrich) as already described. Mineralization of MC3T3 cells was assessed by staining with Alizarin red (Fluka). Cells were cultured and treated as described above for 21 days, with media and test compounds changed every 3 days, and calcium phosphate deposition was assayed as described by Gregory et al.. Briefly, the cells were washed twice with PBS and fixed with 70% ethanol for 15 min on ice. The cells were stained with Alizarin red solution (40 mM, pH 4.2) for 30 min at room temperature, washed twice with distilled water and once with PBS. The dye from the stained mineral deposits was extracted with 33% acetic acid and the absorbance was measured at 405 nm using a Safire II microplate reader (Tecan).

MC3T3-E1 cells [8] = test: Mineralization of MC3T3-E1 cells, Alizarin red staining; type: cell-based, mouse; details: DF + E2 1 nM or compound 1 μM; 21 days; DF plus vehicle = 100
Protocol: as §1, with “Differentiation of MC3T3-E1 cells to osteoblasts has been extensively used to screen for compounds that may promote bone formation. Differentiation” for “Differentiation”

ERβ = ERβ (Homo sapiens, UniProt Q92731); test: ERE-dependent luciferase gene transcription in HEK:ERβ cells; type: cell-based; set-up: expressed in transfected cells; host or cells: HEK-293 (HEK:ERβ clone, with pERE-tk-Luciferase); details: compounds 1 μM, estradiol 0.1 nM; 18 h
Protocol: Assessment of ER/ERE-dependent luciferase gene transcription in MCF-7:D5L (express ERα) and HEK:ERβ cells (express ERβ) and determination of ER transcriptional agonism was carried as already described. Briefly, the cells were plated in 96-well plates at a density of 12,000 cells per well in phenol-red-free MEM (MCF-7:D5L cells) or phenol-red-free DMEM (HEK:ERβ cells) supplemented with 1 μg/mL insulin and 5% DCC-FBS. […] The AUC of the isoflavonoids of each group were then expressed as % of the AUC of the respective archetypal isoflavone. Since AUC data combine the efficacy as well as the potency of cell response into a single parameter, the %AUC data were considered here as a more reliable measure of relative ER/ERE-dependent luciferase expression of the test compounds.

[9] = 1 nM estradiol or 1 μM compound
[10] = 1 μM ICI182,780, isoflavonoids 1 μM

Sequence of ERβ (Q92731 whole entry): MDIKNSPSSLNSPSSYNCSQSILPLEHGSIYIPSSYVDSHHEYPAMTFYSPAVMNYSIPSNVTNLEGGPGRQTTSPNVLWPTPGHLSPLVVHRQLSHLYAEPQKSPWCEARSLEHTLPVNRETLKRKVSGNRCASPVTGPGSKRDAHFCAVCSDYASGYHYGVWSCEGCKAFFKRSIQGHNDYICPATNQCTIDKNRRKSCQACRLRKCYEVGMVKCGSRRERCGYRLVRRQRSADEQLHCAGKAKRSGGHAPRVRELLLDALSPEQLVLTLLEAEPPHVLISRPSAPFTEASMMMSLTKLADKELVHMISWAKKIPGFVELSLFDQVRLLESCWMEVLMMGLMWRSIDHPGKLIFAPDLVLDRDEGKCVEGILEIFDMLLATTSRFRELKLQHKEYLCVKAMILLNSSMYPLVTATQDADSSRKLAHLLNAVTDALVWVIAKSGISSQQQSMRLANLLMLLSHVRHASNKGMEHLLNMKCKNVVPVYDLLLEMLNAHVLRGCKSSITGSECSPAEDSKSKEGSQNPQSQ

SMILES | EC (25% of 0.1 nM E2 effect) (Ishikawa cells; Homo sapiens, Ishikawa) [µM] | activation at 1 µM (Ishikawa cells; Homo sapiens, Ishikawa) [%] | activation at 1 µM (MCF-7 cells) [%] | Differentiation of RAW 267.4 cells, TRAP expression (%) (RAW 264.7 cells [1]) | viability of HT22 cells under normal growth conditions compared to vehicle-treated cells (HT22 cells [2]; [9]) | concentrations that inhibit osteoclastic differentiation of RAW 264.7 cells (RAW 264.7 cells [4]) [µM] | prevention of oxytosis of glutamate-challenged HT22 cells (HT22 cells [5]) | proliferation of MDA-MB-231 cells (MDA-MB-231 cells) | other results
O=c1c(-c2ccc(O)cc2)coc2cc(O)cc(O)c12 [Compound 3, genistein] | 0.03 ± 0.01 | 110 ± 11 | 79 ± 6 | 106±11 | not different | ≥ 10 | unable to prevent oxytosis |  | EC50 (Ishikawa cells; Homo sapiens, Ishikawa, read-out: Induction of Alkaline Phosphatase Expression (Ishikawa cells) EC50E2): 50 ± 20 nM; viability of glutamate-treated HT22 cells (% of glutamate-free cells) (HT22 cells [2]; 5 mM glutamate 24 h, 1 nM estradiol or 1 μM compound): ≤ 40%; reduction of LPS induction of TNFα mRNA expression (TNFα mRNA [3]; 3 μM, pre-treatment 24 h, LPS 100 ng/ml 1 h): 15%; suppression of LPS-stimulated TNFα mRNA expression (TNFα mRNA [3]; pre-incubated with 3 μM isoflavonoid prior to the stimulation): ineffective; inhibition of TNFα gene transcription in RAW 264.7 cells (TNFα mRNA [6]; pre-incubation with low micromolar concentrations): 30–40%
C[C@]12CC[C@@H]3c4ccc(O)cc4CC[C@H]3[C@@H]1CC[C@@H]2O [Estradiol, 17β-estradiol, reference compound] | 9.83 ± 0.44 | 100 ± 9 | 100 ± 19 | 105±3 | not different | ≥ 10 | unable to prevent oxytosis | not affected | induction of AlkP expression (Ishikawa cells; 0.1 nM estradiol, vs vehicle): 3.68 fold; induction of proliferation of MCF-7 cells (MCF-7 cells; 0.1 nM estradiol, vs vehicle): 1.80 fold; Differentiation of MC3T3-E1 cells, AlkP expression (%) (MC3T3-E1 cells [7]): 118±2 %; Differentiation of MC3T3-E1 cells, Alizarin red staining (%) (MC3T3-E1 cells [8]): 134±7 %; viability at 0.001 µM (HT22 cells [2]; Mus musculus, HT-22, 24 h, read-out: viability of glutamate-treated HT22 cells (% of glutamate-free cells)): ≤ 40%; IC50 (HT22 cells [5]; read-out: IC50, ER-dependent protection of glutamate-challenged HT22 cells from oxytosis): > 800 nM; suppression of TNFα mRNA expression and cytokine release after LPS (TNFα mRNA [6]; estrogen-free RAW 264.7 cells): unable to suppress; Induction of luciferase gene transcription through ERβ, HEK:ERβ cells, Agonism at 1μΜ (% of 0.1nM E2) (ERβ): 100 ± 12 % of 0.1nM E2
C[C@]12CC[C@@H]3c4ccc(O)cc4C[C@@H](CCCCCCCCC[S+]([O-])CCCC(F)(F)C(F)(F)F)[C@H]3[C@@H]1CC[C@@H]2O (stereo partly shown) [ICI182,780, reference compound] |  |  |  |  |  |  |  | not affected | suppression of isoflavonoid-induced AlkP expression (Ishikawa cells; [10]): fully suppressed; suppression of isoflavonoid cell proliferation effects (MCF-7 cells; [10]): fully suppressed

Reference: paper PMC6324813, “Biological evaluation of isoflavonoids from Genista halacsyi using estrogen-target cells: Activities of glucosides compared to aglycones” (PLoS ONE, 2019)
